Source: PMC4280904 (Journal of Veterinary Pharmacology and Therapeutics, 2014)

Legend:
Parameters in all cases: species or system Wistar rats
NAT2 = experiment: In vivo enzyme induction: N-acetyltransferase, procainamide; conditions: rats, 20 mg/kg i.p. once daily 7 days
CYP1A = experiment: In vivo enzyme induction: ethylresorufin O-deethylase; conditions: rats
CYP2A = experiment: In vivo enzyme induction: ethoxycoumarin O-deethylase; conditions: rats
CYP2B = experiment: In vivo enzyme induction: pentylresorufin O-depentylase; conditions: rats
CYP3A = experiment: In vivo enzyme induction: erythromycin N-demethylase; conditions: rats, 40 mg/kg p.o. once daily 7 days
[1] = 40 mg/kg p.o. once daily 7 days
[2] = 40 mg/kg i.p. once daily 7 days

C[C@@H]1C[C@H]2[C@@H]3CCC4=CC(=O)C=C[C@]4(C)[C@@]3(F)[C@@H](O)C[C@]2(C)[C@@]1(O)C(=O)CO [Dexamethasone, dexamethasone, reference compound]
NAT2 activity compared with untreated controls (NAT2): 1.8 fold

CCC1(c2ccccc2)C(=O)NC(=O)NC1=O [Phenobarbital, phenobarbital]
CYP1A enzyme activity relative to control (CYP1A; [1]): 5.5 fold | CYP2A enzyme activity relative to control (CYP2A; [1]): 2.6 fold | CYP2B enzyme activity relative to control (CYP2B; [1]): 17.7 fold | CYP3A enzyme activity relative to control (CYP3A): 3.5 fold

O=c1cc(-c2ccccc2)oc2ccc3ccccc3c12 [β-naphthoflavone]
CYP1A enzyme activity relative to control (CYP1A; [2]): 25.1 fold | CYP2A enzyme activity relative to control (CYP2A; [2]): 15.8 fold | CYP2B enzyme activity relative to control (CYP2B; [2]): 3.8 fold
